US9469647B2, “Salt crystals” (INTRA-CELLULAR THERAPIES, INC., priority 2012, dated 2016)
Where two headings read alike, the source gives them in different places.

How the values were obtained:
[1] = Solubility study of phosphate salt crystals in aqueous media at pH 1.2-6.8; assay type: physicochemical; details: for solubility at 1 hr / solubility at 16 hr: thermodynamic from solid; for solubility at 1 hr: read-out: Solubility after 1 hr; for solubility at 16 hr: read-out: Solubility after 16 hrs
Method: The (6aR,9aS)-5,6a,7,8,9,9a-hexahydro-5-methyl-3-(phenylamino)-2-((4-(6-fluoropyridin-2-yl)phenyl)methyl)-cyclopent[4,5]imidazo[1,2-a]pyrazolo[4,3-e]pyrimidin-4(2H)-one mono-phosphate salt crystals are assessed for its aqueous solubility at lower pH. The (amorphous) free base is also tested for reference at a limited range of pH.
Phosphate (buffer) solutions are made at 50 mM concentration and the pH is adjusted to pH 2, 3, 4, 5 or 6.8 using either 3M phosphoric acid (lower pH) or 3M NaOH (higher pH). 0.1N HCl is also used, pH is measured as 1.2.
20 mg of the (6aR,9aS)-5,6a,7,8,9,9a-hexahydro-5-methyl-3-(phenylamino)-2-((4-(6-fluoropyridin-2-yl)phenyl)methyl)-cyclopent[4,5]imidazo[1,2-a]pyrazolo[4,3-e]pyrimidin-4(2H)-one mono-phosphate salt crystals or free base is weighed into a glass vial, and 2 ml of the relevant aqueous media is added. The vials are shaken. After 1 hr, a sample (˜1 ml) is removed via syringe, and filtered through a syringe filter (0.2 micron) into an HPLC vial. After shaking the suspensions for 16 hours, a second sample is taken. All samples are then diluted with the HPLC diluent by a factor of 1000 (except the pH 6.8 samples which are diluted ×10), and re-analysed by HPLC. In cases where the entire solid dissolved, the 2 ml solution is added to another 20 mg salt or free base.

[2] = tested on: phosphodiesterase 1 (PDE 1); details: statement referring to WO 2009/075784; cited from earlier work
[3] = USP2 dissolution study at pH 1 and 4.5; assay type: physicochemical
Description: The rate of dissolution is an important factor in the bioavailability of an active pharmaceutical ingredient (API). This is commonly tested using standard conditions e.g. USP 2 dissolution testing. The pH of the aqueous media used can be correlated with the pH of the stomach (low pH −1-2) and the intestines (intermediate acidic pH −4-6). Therefore pH 1 (0.1 M HCl) and a citrate buffer at pH 4.5 (0.2M) are used for the dissolution testing.
The (6aR,9aS)-5,6a,7,8,9,9a-hexahydro-5-methyl-3-(phenylamino)-2-((4-(6-fluoropyridin-2-yl)phenyl)methyl)-cyclopent[4,5]imidazo[1,2-a]pyrazolo[4,3-e]pyrimidin-4(2H)-one mono-phosphate salt crystals are weighed (×4) into size 0 white gelatine capsules at 119 mg per capsule (equivalent to 100 mg API). The (6aR,9aS)-5,6a,7,8,9,9a-hexahydro-5-methyl-3-(phenylamino)-2-((4-(6-fluoropyridin-2-yl)phenyl)methyl)-cyclopent[4,5]imidazo-[1,2-a]pyrazolo[4,3-e]pyrimidin-4(2H)-one is also weighed (×2) into white gelatine capsules at 100 mg per capsule. These capsules are then dissolved using the standard set up of the USP 2 dissolution equipment i.e., in 1000 mL of the relevant aqueous media, stirrers set at 50 rpm, capsules placed in metal coils to weigh them down, media equilibrated with the water bath set at 37″C. Analytical samples are removed via canula, with an initial filter on the canula and secondary filtering through 0.2 micron syringe filters. The samples are then analysed without dilution by HPLC for API content. Calibration for HPLC is run using both the free base API and the phosphate salt.

[4] = Bridging study of monophosphate salt and free base in dog (plasma pharmacokinetics); assay type: in vivo; details: po, 40 mg/kg; for half-life: read-out: E Half-life (converted)
Method: The mono-phosphate salt of (6aR,9aS)-5,6a,7,8,9,9a-hexahydro-5-methyl-3-(phenylamino)-2-((4-(6-fluoropyridin-2-yl)phenyl)methyl)-cyclopent[4,5]imidazo[1,2-a]pyrazolo[4,3-e]pyrimidin-4(2H)-one is administered to dogs at a dose of 40 mg/kg in gelatin capsules or via oral gavage in a vehicle formulation of HCl-Citrate, pH 3.5, 0.5% methylcellulose in water. […] The analysis of drug concentration in plasma samples collected is analyzed.
The pharmacokinetic (PK) parameters are determined from the plasma concentration versus time data by non-compartmental methods with uniform weighting (PK solutions 2.0™, Summit Research Services, Montrose, Colo.). The maximum observed concentration (Cmax) and the time of the maximum observed concentration (tmax) are obtained from the bioanalytical raw data. The area-under-the-plasma concentration-time curve from time zero to the time of the last measurable sample (AUC_) is calculated by the trapezoidal rule.

[5] = 50 mM phosphate buffer, pH 2, aqueous buffer, pH 2, 50 mM phosphate buffer
[6] = 0.1N HCl, pH 1.2, simulated gastric fluid, pH 1.2 (0.1N HCl)
[7] = both sexes, Mean (M-5001 to F-5102), oral gavage
[8] = female, dog F-5101, oral gavage
[9] = female, dog F-5102, oral gavage

## CN1C(=O)c2c(nn(Cc3ccc(-c4cccc(F)n4)cc3)c2Nc2ccccc2)N2C1=N[C@@H]1CCC[C@@H]12 [Free base API (amorphous), (6aR,9aS)-5,6a,7,8,9,9a-hexahydro-5-methyl-3-(phenylamino)-2-((4-(6-fluoropyridin-2-yl)phenyl)methyl)-cyclopent[4,5]imidazo[1,2-a]pyrazolo[4,3-e]pyrimidin-4(2H)-one]
[1]; [5]
  solubility at 1 hr: > 20 mg/mL
  solubility at 16 hr: > 20 mg/mL
[1]; [6]
  solubility at 1 hr: > 20 mg/mL
  solubility at 16 hr: > 20 mg/mL
[1]; pH 3, 50 mM phosphate buffer
  Solubility after 1 hr: 2.5 mg/mL
  Solubility after 16 hrs: 2.2 mg/mL
[2]
  PDE1 inhibition (potency and selectivity in words): potent and selective phosphodiesterase 1 (PDE 1) inhibitor
[3]; pH 1 (0.1 M HCl), 37 C
  solubility at low pH in dissolution study: good solubility
[3]; pH 1, about 0.1 mg/mL (API equivalent), capsule in 1000 mL, 50 rpm
  time to full dissolution: approximately 15 minutes
[4]; [7]
  AUC: 19200 ng·h/mL
  Cmax: 1020 ng/mL
  Tmax: 4 h
  half-life: 10.8 h
[4]; [8]
  AUC: 11500 ng·h/mL
  Cmax: 674 ng/mL
  Tmax: 8 h
  half-life: 6.7 h
[4]; [9]
  AUC: 14300 ng·h/mL
  Cmax: 2000 ng/mL
  Tmax: 2 h
  half-life: 5.5 h
[4]; male, dog M-5001, oral gavage
  AUC: 20100 ng·h/mL
  Cmax: 902 ng/mL
  Tmax: 4 h
  half-life: 14.8 h
[4]; male, dog M-5002, oral gavage
  AUC: 36500 ng·h/mL
  Cmax: 1320 ng/mL
  Tmax: 4 h
  half-life: 16.7 h
